Biological target: Mtb DTBS (BioD) (Mycobacterium tuberculosis, UniProt P9WPQ5)
Sequence (P9WPQ5 whole entry): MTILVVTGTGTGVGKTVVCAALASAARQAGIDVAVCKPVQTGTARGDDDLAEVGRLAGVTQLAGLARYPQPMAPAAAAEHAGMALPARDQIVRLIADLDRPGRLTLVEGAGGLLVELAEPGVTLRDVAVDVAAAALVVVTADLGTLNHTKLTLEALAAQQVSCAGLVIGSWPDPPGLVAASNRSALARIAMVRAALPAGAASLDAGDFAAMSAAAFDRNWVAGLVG

## C[C@H](N)[C@@H](CCCCCC(=O)O)NC(=O)O [DAPA-carbamate]
  X-ray crystal structure, 2.05 Å (crystal soaked in 10 mM DAPA): additional electron density attached to the N7 atom of DAPA that fits the carbon dioxide
